Measured values reported in paper PMC7897990, “TriTOX: A novel Trichomonas vaginalis assay platform for high-throughput screening of compound libraries” (International Journal for Parasitology: Drugs and Drug …, 2021).
Where two headings read alike, the source gives them in different places.

Experiments:
[1] = tested on: Trichomonas vaginalis G3 trophozoites
[2] = tested on: nontumorigenic neonatal foreskin fibroblast (NFF) cell line
[3] = replicate 1; parasite screen at 1 µg/mL
[4] = replicate 2; parasite screen at 1 µg/mL
[5] = HTS single concentration, parasite screen 1 µg/mL, replicate 1
[6] = HTS single concentration, parasite screen 1 µg/mL, replicate 2
[7] = NFF_NS1 screen 5 µg/mL, single concentration
[8] = parasite screen at 1 µg/mL, replicate 1
[9] = parasite screen at 1 µg/mL, replicate 2
[10] = NFF_NS1 screen at 5 µg/mL, NFF cells

SMILES	T.vaginalis_%inb_Rep1 [1, 8] [%]	T.vaginalis_%inb_Rep2 [1, 9] [%]	NFF_Activity [2, 10]	other results
C=C1c2cccc(O)c2C(O)=C2C(=O)C3(O)C(O)=C(C(N)=O)C(=O)C(N(C)C)C3C(O)C12 (stereo not drawn) [BIA-M1467]	–	–	–	T.vaginalis_%inb_Rep1 [1, 3]: 12.78%; T.vaginalis_%inb_Rep2 [1, 4]: 4.43%; NFF_Activity ([2]; NFF cells, screen at 5 µg/mL): I (otherwise these were reported as inactive (I))
Cc1cccc(O)c1C(=O)O [BIA-M1655]	–	–	–	T.vaginalis_%inb_Rep1 [1, 3]: 11.00%; T.vaginalis_%inb_Rep2 [1, 4]: 14.69%; NFF_Activity ([2]; NFF cells, screen at 5 µg/mL): I (otherwise these were reported as inactive (I))
Cc1cc(O)c(C)c(O)c1C(=O)O [BIA-M1661]	–	–	–	T.vaginalis_%inb_Rep1 [1, 3]: 12.78%; T.vaginalis_%inb_Rep2 [1, 4]: 12.06%; NFF_Activity ([2]; NFF cells, screen at 5 µg/mL): A (active (A) compounds having >25% inhibitory activity)
C=C(C)[C@@H]1CC[C@]2(C(=O)OC)CC[C@]3(C)[C@H](CC[C@@H]4[C@@]5(C)CC[C@H](O)C(C)(C)[C@@H]5CC[C@]43C)[C@@H]12 [BIA-M1757]	–	–	–	T.vaginalis_%inb_Rep1 [1, 5]: 14.81%; T.vaginalis_%inb_Rep2 [1, 6]: 16.56%; NFF_Activity [2, 7]: I (otherwise these were reported as inactive (I))
CCCCC(C)C=C(C)C=C(C)C(=O)NC1=CC(O)(C=CC=CC=CC(=O)NC2=C(O)CCC2=O)C2OC2C1=O (stereo not drawn) [BIA-M1905]	–	–	–	T.vaginalis_%inb_Rep1 [1, 3]: 10.60%; T.vaginalis_%inb_Rep2 [1, 4]: 12.76%; NFF_Activity ([2]; NFF cells, screen at 5 µg/mL): I (otherwise these were reported as inactive (I))
COc1ccc2[nH]c3c(C)c4ccncc4c(C)c3c2c1 [BIA-M1952]	–	–	–	T.vaginalis_%inb_Rep1 [1, 3]: 5.30%; T.vaginalis_%inb_Rep2 [1, 4]: 7.25%; NFF_Activity ([2]; NFF cells, screen at 5 µg/mL): A (active (A) compounds having >25% inhibitory activity)
CN[C@@H]1C[C@H]2O[C@@](C)([C@@H]1OC)n1c3ccccc3c3c4c(c5c6ccccc6n2c5c31)C(=O)NC4=O [BIA-O1137]	–	–	–	T.vaginalis_%inb_Rep1 [1, 5]: 63.59%; T.vaginalis_%inb_Rep2 [1, 6]: 75.50%; NFF_Activity [2, 7]: A (active (A) compounds having >25% inhibitory activity)
CO[C@H]1[C@H](O)[C@@H](O)[C@H](n2c3c(Cl)cccc3c3c4c(c5c6cccc(Cl)c6[nH]c5c32)C(=O)NC4=O)O[C@@H]1CO [BIA-R1075]	10.49	13.95	I (otherwise these were reported as inactive (I))	–
COc1c(O)cc2cc(C)oc(=O)c2c1O [BIA-R1077]	14.76	13.92	I (otherwise these were reported as inactive (I))	–
CCCCCCCCCCCCCCCC(=O)C1=C(O)C(CO)OC1=O (stereo not drawn) [BIA-R1082]	10.55	12.25	I (otherwise these were reported as inactive (I))	–
C=CC(C)(C)[C@@]12C[C@H]3C(=O)N/C(=C/c4c[nH]cn4)C(=O)N3[C@@H]1Nc1ccccc12 [BIA-R1083]	13.69	4.87	A (active (A) compounds having >25% inhibitory activity)	–
C[C@@H]1C[C@H]2O[C@@H]2/C=C\C=C\C(=O)Cc2c(Cl)c(O)cc(O)c2C(=O)O1 [BIA-R1148]	12.83	10.33	A (active (A) compounds having >25% inhibitory activity)	–
CO[C@H]1C[C@@H]2CC[C@@H](C)[C@@](O)(O2)C(=O)C(=O)N2CCCC[C@H]2C(=O)O[C@H]([C@H](C)C[C@@H]2CC[C@@H](O)[C@H](OC)C2)CC(=O)[C@H](C)/C=C(\C)[C@@H](O)[C@@H](OC)C(=O)[C@H](C)C[C@H](C)/C=C/C=C/C=C/1C [BIA-R1183]	10.28	12.55	I (otherwise these were reported as inactive (I))	–
CC[C@H]1OC(=O)[C@H](C)[C@@H](O[C@H]2C[C@@](C)(OC)[C@@H](O)[C@H](C)O2)[C@H](C)[C@@H](O[C@@H]2O[C@H](C)C[C@H](N(C)C)[C@H]2O)[C@](C)(O)C[C@@H](C)/C(=N\OCOCCOC)[C@H](C)[C@@H](O)[C@]1(C)O [BIA-R1315]	1.36	5.85	I (otherwise these were reported as inactive (I))	–
CO[C@H]1C[C@@H]2CC[C@@H](C)[C@@](O)(O2)C(=O)C(=O)N2CCCC[C@H]2C(=O)O[C@H]([C@H](C)C[C@@H]2CC[C@@H](OP(C)(C)=O)[C@H](OC)C2)CC(=O)[C@H](C)/C=C(\C)[C@@H](O)[C@@H](OC)C(=O)[C@H](C)C[C@H](C)/C=C/C=C/C=C/1C [BIA-R1450]	8.81	19.01	I (otherwise these were reported as inactive (I))	–
CN(C)[C@@H]1C(O)=C(C(=O)NCN2CCCC2)C(=O)[C@@]2(O)C(O)=C3C(=O)c4c(O)cccc4[C@@](C)(O)[C@H]3C[C@@H]12 [BIA-R1460]	13.95	12.12	I (otherwise these were reported as inactive (I))	–

SMILES	T.vaginalis_%inb_Rep1 [1, 8] [%]	T.vaginalis_%inb_Rep2 [1, 9] [%]	NFF_Activity [2, 10]	other results
C=CC1(C)CC(OC(=O)CSC2CC3CCC(C2)N3C)C2(C)C(C)CCC3(CCC(=O)C32)C(C)C1O (stereo not drawn) [BIA-R1491]	10.45	11.55	I (otherwise these were reported as inactive (I))	–
Cc1cc2nc3c(=O)[nH]c(=O)nc-3n(C[C@H](O)[C@H](O)[C@H](O)CO)c2cc1N(C)C [BIA-R1535]	11.33	14.32	I (otherwise these were reported as inactive (I))	–
C/C=C/c1cc2c(c(=O)o1)[C@H](O)[C@@H](O)[C@H](C)O2 [BIA-R1896]	13.39	5.58	I (otherwise these were reported as inactive (I))	–
CCCCCCCCCCCC[C@@H](C(=O)O)[C@H](C)C(=O)O [BIA-R1904]	13.79	5.71	I (otherwise these were reported as inactive (I))	–
COC(=O)C1=CO[C@@H](C)[C@@H]2CN3CCc4c([nH]c5cc(OC)c(OC)cc45)[C@H]3C[C@H]12 [BIA-R1946]	11.06	13.59	I (otherwise these were reported as inactive (I))	–
CN[C@@H]1C[C@H]2O[C@@](C)([C@@H]1OC)n1c3ccccc3c3c4c(c5c6ccccc6n2c5c31)C(=O)NC4 [BIA-S1086]	72.52	83.24	A (active (A) compounds having >25% inhibitory activity)	–
COC1=C(N)C(=O)c2nc(-c3nc(C(=O)O)c(C)c(-c4cccc(OC)c4O)c3N)ccc2C1=O [BIA-S1088]	–	–	–	T.vaginalis_%inb_Rep1 [1, 5]: 77.76%; T.vaginalis_%inb_Rep2 [1, 6]: 92.91%; NFF_Activity [2, 7]: A (active (A) compounds having >25% inhibitory activity)
COC(=O)c1cc(O)cc(OC)c1C(=O)c1c(O)cc(C)cc1O [BIA-S1089]	9.49	14.81	A (active (A) compounds having >25% inhibitory activity)	–
COC1=C(N)C(=O)c2nc(-c3nc(C(=O)O)c(C)c(-c4ccc(OC)c(OC)c4O)c3N)ccc2C1=O [BIA-S1107]	76.72	90.80	A (active (A) compounds having >25% inhibitory activity)	–
CN(N=O)C(=O)N[C@@H]1[C@@H](O)[C@H](O)[C@@H](CO)O[C@@H]1O [BIA-S1186]	9.02	7.62	I (otherwise these were reported as inactive (I))	–
COc1cc2c(c3oc4cccc(O)c4c(=O)c13)[C@@H]1C=CO[C@@H]1O2 [BIA-S1213]	10.12	14.32	I (otherwise these were reported as inactive (I))	–
Nc1ncnc2c1ncn2[C@@H]1O[C@H](C[C@@H](N)CC[C@H](N)C(=O)O)[C@@H](O)[C@H]1O [BIA-S1376]	11.43	25.29	I (otherwise these were reported as inactive (I))	–
CN(C)[C@@H]1C(=O)C(C(N)=O)=C(O)[C@@]2(O)C(=O)C3=C(O)c4c(O)cccc4C[C@H]3C[C@@H]12.Cl [BIA-S1534]	5.02	3.66	I (otherwise these were reported as inactive (I))	–
Cc1cc(O)c2c(c1)C(=O)c1c(c(O)cc(O)c1-c1c(O)cc(O)c3c1C(=O)c1cc(C)cc(O)c1C3=O)C2=O [BIA-S1662]	9.89	5.90	I (otherwise these were reported as inactive (I))	–
O=C1NCc2nc3ccccc3c(=O)n2-c2ccccc21 [BIA-S1678]	10.85	12.61	I (otherwise these were reported as inactive (I))	–
COc1cc(/C=C/C(=O)O)cc(OC)c1O [BIA-S1730]	9.02	14.02	I (otherwise these were reported as inactive (I))	–
